Source: ChEMBL document CHEMBL1158106, “Penifulvins B-E and a silphinene analogue: sesquiterpenoids from a fungicolous isolate of Penicillium griseofulvum” (J Nat Prod, 2006)
Activity calls are given as the source filed them. The rule behind the calls is not given here.

What was measured:
Type in all cases: functional, organism-based
[1] = system: Bacillus subtilis; assay: Antibacterial activity against Bacillus subtilis ATCC 6051 at 100 ug/disk by agar disk diffusion assay
[2] = system: Staphylococcus aureus; assay: Antibacterial activity against Staphylococcus aureus ATCC 29213 at 100 ug/disk by agar disk diffusion assay
[3] = system: Candida albicans; assay: Antifungal activity against Candida albicans ATCC 14053 at 100 ug/disk by agar disk diffusion assay
[4] = system: Aspergillus flavus; assay: Antifungal activity against Aspergillus flavus NRRL 6541 at 100 ug/disk by agar disk diffusion assay
[5] = system: Spodoptera frugiperda; assay: Insecticidal activity against Spodoptera frugiperda at 100 ug/disk

Row | Compound | Activity [1] | Activity [2] | Activity [3] | Activity [4] | Activity [5]
1 | C[C@@]1(CO)C[C@]2(C)CC=C[C@]23[C@H](C(=O)O)CC[C@@H]13 | inactive | inactive | inactive | inactive | inactive
2 | C[C@@]1(CO)C[C@]2(C)CC(=O)O[C@H]3OC(=O)[C@@H]4CC[C@@H]1[C@]342 | inactive | inactive | inactive | inactive | inactive
3 | CC1(C)C[C@]2(C)CC(=O)O[C@H]3OC(=O)[C@@H]4CC[C@@H]1[C@]342 |  |  |  |  | Active
